Results on one compound are retold here after patent publication US20170136008A1, “OXABICYCLOHEPTANES AND OXABICYCLOHEPTENES FOR THE TREATMENT OF OVARIAN CANCER” (priority 2014, published 2017).

The IC50 is the concentration that inhibits the measured activity by half.

Experiment [1] has as its system SKOV-3 ovarian cancer cells. Kind of experiment: MTT cytotoxicity assay, SKOV-3. The class given is cell-based, human. For orientation: Tetrazolium assays rely on reduction of a dye to a coloured formazan, in cell work by metabolically active cells.
The test system of experiment [2] is OVCAR-8 ovarian cancer cells. Kind of experiment: MTT cytotoxicity assay, OVCAR-8. Format: cell-based, human. Conditions: Homo sapiens, OVCAR-8, OVCAR8, read-out: IC50, viability of ovarian cancer cell line. As for the experimental part:
SKOV-3 ovarian cancer cells were purchased from American Type Culture Collection (ATCC) (Manassas, Va.). SKOV-3 cells were cultured in McCoy's 5A medium (ATCC, Manassas, Va.) supplemented with 10% fetal bovine serum and 100 units/mL penicillin G sodium, 100 ug/mL streptomycin sulfate, and 292 μg/ml, L-glutamine (BioWhittaker, Wakersville, Md.). Luciferase-expressing cells were generated by infecting SKOV-3 cells with pCLNCX-luciferase retrovirus (SKOV-3-Luc) as previously reported (Wei, B. R. et al. 2009). Human OVCAR-8 ovarian cancer cells were provided by the National Cancer Institute (part of the NCI-60 collection). The PEO1, PEO4, and PEO6 ovarian cancer cell lines have previously been characterized (Langdon, S. P. et al. 1988) and were kindly provided by Dr. Ian Goldlust (National Center for Advancing Translational Sciences, Shady Grove, Md.). […]
Cell survival was measured by the 3-(4,5-dimethylthiazol-2-yl)-2,5-diphenyltetrazolium bromide (MTT, Invitrogen) assay. […] Absorbance values were determined at […] on a Spectra Max 250 spectrophotometer (Molecular Devices, Sunnyvale, Calif.). […] Cell viability was analyzed via the MTT assay as described above. […]

In a further experiment the test system is OVCAR-8 NT shRNA cells. Kind of experiment: Cell viability (MTT) assay, OVCAR-8 NT shRNA. The class given is cell-based. Conditions: Homo sapiens; OVCAR-8 NT shRNA (control). How it is done: Cell survival was measured by the 3-(4,5-dimethylthiazol-2-yl)-2,5-diphenyltetrazolium bromide (MTT, Invitrogen) assay. Cells were seeded at a density of 5,000 cells per well in 96-well plates and incubated at 37° C. in humidified 5% CO2 for 24 hours. The 50% inhibitory concentration (IC50) values were defined as the drug concentrations required to reduce cellular proliferation to 50% of the untreated control well. […] All MTT assays were carried out according to the manufacturer's instructions (Molecular Probes, Eugen, Oreg.). Absorbance values were determined at […] on a Spectra Max 250 spectrophotometer (Molecular Devices, Sunnyvale, Calif.). All MTT assays were performed in triplicate. […] Cells were treated with both drugs for 72 h. Cell viability was analyzed via the MTT assay as described above. Experiments were performed in triplicate, and the data are presented as a percent mean±SD.
To stably knockdown expression of PP2AC, a pLKO.1-puro plasmid-based […] shRNA targeting the sequence: […] (clone ID:TRCN0000002483, Sigma-Aldrich) was employed (PP2AC-shRNA). Additionally, a non-targeting shRNA plasmid (NT-shRNA) that targets no known human sequence was utilized as a control. […]

The subject of experiment [3] is HEK 293 human embryonic kidney cell lines overexpressing Pgp, MRP1, or ABCG2. Put plainly: IC50 in ABC transporter-overexpressing HEK 293 lines. The settings on record: HEK 293 overexpressing Pgp. Format: cell-based. As for the experimental part:
When HEK 293 human embryonic kidney cell lines overexpressing Pgp, MRP1, or ABCG2 (Robey, R. W. et al. 2005) were treated with equal concentration of LB100, the IC50s of the transfected lines were not different compared with parent (non-transporter-expressing) cells or in the presence of an inhibitor (tariquidar) (FIG. 5).

For the compound `CN1CCN(C(=O)C2C(C(=O)O)[C@H]3CC[C@@H]2O3)CC1` (some centres unmarked) [LB100], the 50% inhibitory concentration (IC50) in experiment [1] (Homo sapiens, SK-OV-3, SK-OV3, MTT, read-out: IC50, viability of ovarian cancer cell line) was 10.1 ± 1.6 µM; in experiment [2] it was 5.5 ± 0.5 µM; with OVCAR-8 NT shRNA cells, 15.7 ± 1.3 µM. In addition, the “fold less sensitive compared to the other ovarian lines” value in experiment [1] (SKOV-3 vs other ovarian lines) was 2 fold. The “IC50s of transfected lines compared with parent cells or in the presence of tariquidar” value in experiment [3] is “not different”.
